Source: US20120095013A1, “USE OF KMUP-3 FOR MYOCARDIAL INFARCTION” (KAOHSIUNG MEDICAL UNIVERSITY, priority 2010, published 2012)

How the values were obtained:
hypertensive rats = details: Wu et al., 2001, Yeh et al., 2010; cited from earlier work
MMP-9 [1] = assay: MMP-9 protein expression in TGF-β-stimulated human cardiac fibroblasts (HCFs); format: cell-based
Procedure: (§1) Human cardiac fibroblasts (HCFs; catalogue number: 306-05f) are purchased from Cell Applications Inc. (San Diego, Calif., USA). The cells are cultured as monolayer in Dulbecco's modified Eagle's medium containing 10% fetal bovine serum at 37° C. in 95% humidity and 5% CO2. Cells are harvested at passage 3-6 for experiment. Before treatment, HCFs are washed twice with serum-free medium and switched to serum-free medium for 24 h. To stimulate MMP-9 expression, the cultures are treated with 10 ng·mL^−1 transforming growth factor-b (TGF-β) for 24 h. HCFs are pretreated with KMUP-3 (10 mmol·L^−1) or in combination with L-NAME (100 mmol·L^−1) for 1 h before addition of 10 ng·mL^−1 TGF-β for 24 h. Each experiment is repeated three times.
(§2) The hearts are sonicated in 50 mmol·L^−1 Tris for 10 s two times and centrifuged at 13,000 rpm at 4° C. for 30 min. The protein concentration of the supernatants is determined by using bovine serum albumin as the standard. The cell extracts are boiled in ratio of 4:1 with sample buffer (100 mmol·L^−1 Tris, pH 6.8, 20% glycerol, 4% SDS, and 0.2% bromophenol blue). Electrophoresis is performed using 10% SDS-polyacrylamide gel electrophoresis and transferred to nitrocellulose membranes (Millipore Corporation, Billerica, Mass., USA). […] The intensity of the bands is quantified by densitometry.

MI rats [2] = assay: Cardiac structure and haemodynamics in rats after myocardial infarction (LAD ligation), LV catheter; format: in vivo, rat
Description: Male rats (250-300 g) are provided by the National Laboratory Animal Breeding and Research Center (Taipei, Taiwan) and housed under constant temperature and controlled illumination. Food and water are available ad libitum. MI is induced by ligation of the left anterior descending (LAD) coronary artery according to Liang et al., 2006. […] The LAD is ligated with 6.0 silk at 2 mm from the origin, and the wound is closed with primary suture. After the operation, the animals are observed until fully conscious. Sham animals undergo similar thoracotomy and pericardiotomy, except that the ligature around the coronary artery is not tied. All the animals are administered with s.c. doses of analgesia (ketoprofen; 3 mg·kg^−1) and antibiotics (gentamicin; 0.7 mg·kg^−1) for 2 days. This study was approved by the Animal Care and Use Committee at Kaohsiung Medical University. Surviving rats are fitted with ALZET osmotic minipumps (Model 2ML4, DURECT Corporation, Cupertino, Calif., USA) immediately after recovery. At this time, most of the rats are still anaesthetized from the previously administered pentobarbital sodium; a further bolus dose of pentobarbital sodium (15 mg·kg^−1) is given if necessary. […] In the treatment group, the minimumps are filled with hydrochloride of KMUP-3 (KMUP-3·HCl; 0.3 mg·kg^−1·day^−1). In the sham and MI groups, the minipumps are filled with saline. After echocardiography, a PE-50 catheter is inserted through the right carotid artery to measure the LV systolic pressure (LVSP), LV end-diastolic pressure (LVEDP) and maximum rates of pressure development (LV+dP/dt) and relaxation (LV−dP/dt). […] The hearts are then excised and the atria and right ventricles are dissected out. Sections of the LV are embedded in mounting medium and the remaining tissues are transferred in the liquid nitrogen for further evaluation. Throughout the whole procedure, a further bolus dose of pentobarbital sodium (15 mg·kg^−1) is given if required.

MI rats [3] = assay: Echocardiography 4 weeks post-surgery in MI rats (LVEDD, LVESD, fractional shortening); format: in vivo, rat; details: KMUP-3 for 4 weeks, FIG. 2
Description: (§3) MI is induced by ligation of the left anterior descending (LAD) coronary artery according to Liang et al., 2006. […] The LAD is ligated with 6.0 silk at 2 mm from the origin, and the wound is closed with primary suture. After the operation, the animals are observed until fully conscious. Sham animals undergo similar thoracotomy and pericardiotomy, except that the ligature around the coronary artery is not tied. Surviving rats are fitted with ALZET osmotic minipumps (Model 2ML4, DURECT Corporation, Cupertino, Calif., USA) immediately after recovery. At this time, most of the rats are still anaesthetized from the previously administered pentobarbital sodium; a further bolus dose of pentobarbital sodium (15 mg·kg^−1) is given if necessary. […] In the treatment group, the minimumps are filled with hydrochloride of KMUP-3 (KMUP-3·HCl; 0.3 mg·kg^−1·day^−1). In the sham and MI groups, the minipumps are filled with saline.

MI rats [4] = assay: Area of risk (Evans blue) and infarct size (TTC staining) in MI rats; format: in vivo, rat
Description: as §3, with “mg·kg^-1)” for “mg·kg^−1)”, “mg·kg^-1·day^-1).” for “mg·kg^−1·day^−1).”, “saline. Histological analyses are performed to all of the heart. Rats are randomly chosen to be analyzed for area of risk after coronary artery ligature by Evan blue staining as described by Harada et al. (2005). […] Ten sections in each heart are analyzed for the percentage of fibrosis. […] The total LV and infarct area and fibrosis region are measured by an investigator without knowledge of the treatment group using US NIH ImageJ, 1.42q.” for “saline.”

MI rats [5] = assay: Cardiac fibrosis by Masson's trichrome staining in MI rats; format: in vivo, rat
Description: as §3, with “mg·kg^-1)” for “mg·kg^−1)”, “mg·kg^-1·day^-1).” for “mg·kg^−1·day^−1).”, “saline. Histological analyses are performed to all of the heart. Rats are randomly chosen to be analyzed for area of risk after coronary artery ligature by Evan blue staining as described by Harada et al. (2005). […] Ten sections in each heart are analyzed for the percentage of fibrosis. […] The total LV and infarct area and fibrosis region are measured by an investigator without knowledge of the treatment group using US NIH ImageJ, 1.42q.” for “saline.”

MMP-9 [6] = assay: Western blot of MMP-9 protein expression in rat hearts; format: in vivo; details: Western blot densitometry, n=9-10, FIG. 5a
TIMP-1 [7] = assay: Western blot of TIMP-1 protein expression in rat hearts; format: in vivo; details: Western blot densitometry, n=9-10, FIG. 5b
eNOS = assay: Western blot of eNOS protein expression in rat hearts; format: in vivo; details: Western blot densitometry, versus MI group, FIG. 5c
TIMP-1 [8] = assay: TIMP-1 protein expression in TGF-β-stimulated human cardiac fibroblasts (HCFs); format: cell-based; details: KMUP-3 10 mmol·L−1, TGF-β 10 ng·mL−1, FIG. 6b
Procedure: as §1, §2

phosphodiesterase = details: Wu et al., 2005; Lin et al., 2006; cited from earlier work
[9] = tested on: endothelial nitric oxide synthase (eNOS); details: Wu et al., 2005; Lin et al., 2006; cited from earlier work
aortic smooth muscle = details: through opening a KATP channel and increasing eNOS; attenuated by glibenclamide; Wu et al., 2005; Lin et al., 2006; cited from earlier work
[10] = KMUP-3·HCl 0.3 mg·kg−1·day−1 by osmotic minipump, 4 weeks, n=10

## Cn1c(=O)c2c(ncn2CCN2CCN(c3ccccc3Cl)CC2)n(C)c1=O [KMUP-1, 7-[2-[4-(2-chlorobenzene)piperazinyl]ethyl]-1,3-dimethylxanthine]
Hypertensive rats
  Cardioprotection, cardiac hypertrophy and fibrosis, in words: therapeutic effect on the cardioprotection in hypertensive rats, the reducing of the cardiac hypertrophy and fibrosis

## COC(=O)[C@@H](N)CCCNC(=N)N[N+](=O)[O-] [L-NAME, N^ω-nitro-L-arginine methyl ester, reference compound]
MMP-9 [1]; L-NAME 100 mmol·L−1 with KMUP-3 10 mmol·L−1, TGF-β 10 ng·mL−1, FIG. 6a
  Effect of eNOS inhibitor pretreatment on KMUP-3 inhibition of MMP-9 expression in HCFs: reverses the inhibition of MMP-9 expression

## Cn1c(=O)c2c(ncn2CCN2CCN(c3ccc([N+](=O)[O-])cc3)CC2)n(C)c1=O [KMUP-3, 7-[2-[4-(4-nitrobenzene)-piperazinyl]ethyl]-1,3-dimethylxanthine]
MI rats [2]; 0.3 mg·kg−1·day−1 for 4 weeks
  Cardiac systolic function (LV+dP/dt), in words: improved cardiac systolic function
MI rats [2]; KMUP-3 treatment 4 weeks
  Cardiac remodelling (hypertrophy, heart weight to body weight ratio), in words: prevents the cardiac remodelling process
MI rats [2]; [10]
  HR (heart rate): 421 ± 5 bpm
  HW (heart weight): 1219 ± 39 mg
  HW/BW: 2.72 ± 0.04 mg/g
  LV +dP/dt: 7637 ± 333 mmHg/s
  LV −dP/dt: −5379 ± 441 mmHg/s
  LVEDP: 12.6 ± 2.3 mmHg
  LVSP: 140.6 ± 4.2 mmHg
MI rats [2]; after KMUP-3 treatment, not statistically significant
  Heart rate change, in words: small increase in heart rate
MI rats [3]
  Cardiac remodeling and dysfunction by echocardiography (LVEDD, LVESD, FS), in words: cardiac remodeling and dysfunction may be prevented
MI rats [4]; Evans blue staining, n=5, FIG. 3a
  Area of risk after coronary artery ligature: no difference between treatment groups
MI rats [4]; TTC staining, MI rats after KMUP-3 treatment, n=10, MI group 47.4±3.7%, P<0.05
  Infarction size (infarct area of LV): 33.6±1.7%
MI rats [5]; n=10, FIG. 4a-b
  Cardiac fibrosis in central-infarct and peri-infarct areas: attenuates cardiac fibrosis
MI rats [5]; n=10, FIG. 4c
  Percentage of fibrosis in non-infarcted area: comparable with that of the sham-operated hearts
MMP-9 [6]
  MMP-9 expression in MI rat hearts: decreases MMP-9 expression
TIMP-1 [7]
  TIMP-1 expression in MI rat hearts: increases significantly
eNOS
  eNOS expression in MI rat hearts: increases significantly
MMP-9 [1]; KMUP-3 10 mmol·L−1, 1 h before TGF-β 10 ng·mL−1 for 24 h, FIG. 6a
  MMP-9 expression in HCFs: attenuates the expression of MMP-9
TIMP-1 [8]
  TIMP-1 expression in HCFs: significantly enhanced
phosphodiesterase
  Phosphodiesterase inhibitor potency, in words: more potent than KMUP-1
[9]
  eNOS in HUVECs, in words: enhance endothelial nitric oxide synthase (eNOS)
Aortic smooth muscle
  Aortic smooth muscle relaxation, in words: may induce aortic smooth muscle relaxation
